pIC50: −log10 of the molar value. Where two headings read alike, the source gives them in different places.
What was measured:
[1] = test system: P. falciparum 3D7 chloroquine-sensitive strain; experiment: In-vitro antiplasmodial test (Giemsa-stained smears); type: cell-based, Plasmodium falciparum; conditions: read-out: P. falciparum IC50
Method: The P. falciparum 3D7 chloroquine-sensitive strain used throughout the study. In-vitro culture of P. falciparum was carried out according to the method described by previously ([12]-[14]). Briefly, parasites were cultured on human erythrocytes (blood group O^+), provided by the Blood Transfusion Organization (Zanjan, Iran), in RPMI 1640 medium completed with 5% of human AB^+ serum, 0.3 g/100 mL Albumax I, 25 mM HEPES, 19 mM sodium carbonate and 30 µg/mL gentamicin sulfate at pH 7.2. Type O^+ erythrocytes were washed three times with RPMI 1640 and stored at 4 °C.
Parasites were aerated in 25 mL flasks under 3% oxygen, 6% carbon dioxide and 91% nitrogen atmosphere. The medium was changed each day.
Pure compounds were dissolved in DMSO at concentration of 10 mg/mL and diluted with complete malaria culture medium to reach 1 mg/mL before use. Parasites were synchronized to the ring stage by sorbitol method described previously ([15]). From 2-fold dilution series (50-0.39 µg/mL) of compounds prepared in assay medium, 20 µL added to each well of 96-well microtiter plates in triplicate. One hundred eighty µL of synchronous P. falciparum culture (1% parasitemia, 2% hematocrit) added to each well reaching a final volume of 200 µL per well. […] Plates were incubated at 37 °C for 24 h. […] After 24 h incubation, Giemsa stained thin smears were made and parasitemia was confirmed by the numeration of 1000 erythrocytes per slide. Data acquired by counting the erythrocytes in Giemsa stain were imported in Microsoft Excel spreadsheet and IC50 values were calculated from dose-response curves.

[2] = test system: human hepatocellular carcinoma cell line (HepG2); experiment: In-vitro cytotoxicity assay (MTT); type: cell-based; conditions: HepG2 cells, 24 h incubation
Method: In drug discovery approaches against malaria, one of the important strategies is the safety of active compounds against human. So, the toxicity of active compounds against P. falciparum was assessed on human hepatocellular carcinoma cell line (HepG2) by using MTT (3-[4,5-dimethylthiazol-2-yl] -2,5 diphenyl tetrazolium bromide) assay ([16]-[17]). The cells were cultured in RPMI 1640 medium enriched with 10% FBS (Fetal Bovine Serum) and incubated at 37 °C with 5% CO2 and 96% humidity. After several subcultures, cells were distributed in 96-well plates at 4,000 cells in 100 µL of culture medium and incubated for 24 h at the same condition to allow attachment of cells to the bottom of wells. Then culture medium removed and 100 µL of two-fold serially diluted concentrations of drug (400-1.56 µg/mL) added to each well in triplicate. Microtiter plates further incubated for 24 h in the same condition. Culture medium without drug was used as negative control. After the incubation time, the drug containing medium discharged and for evaluation of cell survival, 25 µL of MTT solution (4 mg/mL in PBS) added to each well and plates incubated for 3 h (in same condition). Then 100 µL of DMSO added to each well and plates were gently shaken to dissolve the formed formazan crystals. The absorbance of each well measured at 540 nm using an ELISA plate reader (Infinite M200, Tecan). The GI% (Growth Inhibition percent) was calculated using the formula Growth Inhibition% = 100 – […], where ODtest is the mean absorbance of treated cells and ODcontrol is the mean absorbance of a negative control. The cell survival of control assumed 100% and IC50 values generated from dose-response curves for each cell line.

[3] = 3D7 chloroquine-sensitive strain, ring-stage synchronized, 24 h incubation, parasitemia by Giemsa smears
[4] = Plasmodium falciparum, 3D7 chloroquine-sensitive strain, ring-stage synchronized, 24 h incubation, parasitemia by Giemsa smears

SMILES | pIC50 [1, 3] | also measured
O=C(OC(C(=O)NC1CCCCC1)c1ccnc2ccccc12)c1ccc(I)cc1 (stereo not drawn) [Compound 8] | 5.46 | 
CCN(CC)CCCC(C)Nc1ccnc2cc(Cl)ccc12 (stereo not drawn) [CQ, Chloroquine, reference compound] |  | pIC50 ([1]; Plasmodium falciparum, 3D7, 24 h): 6.15
Cc1cccc(C)c1NC(=O)C(OC(=O)c1ccc(Cl)cc1)c1ccnc2ccccc12 (stereo not drawn) [Compound 21] | 5.38 | 
CC(C)(C)c1ccc(C(=O)OC(C(=O)NC2CCCCC2)c2ccnc3ccccc23)cc1 (stereo not drawn) [Compound 2] | 5.58 | pIC50 [2]: 3.72
CC(C)(C)NC(=O)C(OC(=O)c1cccc2ccccc12)c1ccnc2ccccc12 (stereo not drawn) [Compound 18] | 5.16 | 
CC(C)(C)NC(=O)C(OC(=O)c1ccc(Br)cc1)c1ccnc2ccccc12 (stereo not drawn) [Compound 16] | 5.29 | 
O=C(OC(C(=O)NC1CCCCC1)c1ccnc2ccccc12)c1ccccc1 (stereo not drawn) [Compound 1] |  | pIC50 ([2]; Homo sapiens): 3.64; pIC50 [1, 4]: 5.82
CC(C)(C)NC(=O)C(OC(=O)c1ccc(Cl)cc1)c1ccnc2ccccc12 (stereo not drawn) [Compound 13] | 5.23 | 
Cc1cccc(C)c1NC(=O)C(OC(=O)c1ccc(C(C)(C)C)cc1)c1ccnc2ccccc12 (stereo not drawn) [Compound 20] |  | pIC50 ([2]; Homo sapiens): 3.70; pIC50 [1, 4]: 5.86
Cc1cccc(C)c1NC(=O)C(OC(=O)c1ccccc1)c1ccnc2ccccc12 (stereo not drawn) [Compound 19] | 5.37 | 
Cc1cccc(C)c1NC(=O)C(OC(=O)c1cccc2ccccc12)c1ccnc2ccccc12 (stereo not drawn) [Compound 22] |  | pIC50 ([2]; Homo sapiens): 3.59; pIC50 [1, 4]: 5.88
CC(C)(C)NC(=O)C(OC(=O)c1ccccc1)c1ccnc2ccccc12 (stereo not drawn) [Compound 11] | 5.36 | 
O=C(OC(C(=O)NC1CCCCC1)c1ccnc2ccccc12)c1ccc(Cl)cc1 (stereo not drawn) [Compound 4] | 5.30 | 
CC(C)(C)NC(=O)C(OC(=O)c1ccc(C#N)cc1)c1ccnc2ccccc12 (stereo not drawn) [Compound 17] | 5.51 | 

Reference: paper PMC5610748, “Evaluation of Novel α-(Acyloxy)-α-(Quinolin-4-yl) Acetamides as Antiplasmodial Agents” (Iranian Journal of Pharmaceutical Research : IJPR, 2017)
